Laboratory results taken from patent US20130202530A1, “NOVEL RADIOTRACER” (IMPERIAL COLLEGE, priority 2010, published 2013).

How the values were obtained:
CHKA = CHKA expression in exponentially growing cells treated with PD0325901; type: cell-based
[1] = test system: human colon carcinoma xenograft HCT116; assay: Imaging response to PD0325901 treatment by [18F]D4-FCH-PET; type: in vivo, mice
Protocol: Size-matched HCT116 tumor bearing mice were randomized to receive daily treatment by oral gavage of vehicle (0.5% hydroxypropyl methylcellulose+0.2% Tween 80) or 25 mg/kg (0.005 mL/g mouse) of the mitogenic extracellular kinase inhibitor, PD0325901, prepared in vehicle. [^18F]D4-FCH-PET scanning was done after 10 daily treatments with the last dose administered 1 h before scanning. […] The results are illustrated in FIGS. 18 and 19.
These studies were performed in a reproducible tumor model system in which treatment outcomes had been previously characterized, i.e., the human colon carcinoma xenograft HCT116 treated with PD0325901 daily for 10 days (Leyton, J., et al., “Noninvasive imaging of cell proliferation following mitogenic extracellular kinase inhibition by PD0325901”, Mol Cancer Ther 2008; 7(9):3112-21). […] All imaging variables decreased after 10 days of drug treatment (P=0.05, FIG. 18). […] To understand the biomarker changes, the intrinsic cellular effect of PD0325901 on D4-FCH-phosphocholine formation was examined by treating exponentially growing HCT116 cells in culture with PD0325901 for 24 h and measuring the 60-min uptake of [^18F]D4-FCH in vitro.

[2] = test system: human melanoma SKMEL-28 xenografts; conditions: mouse, in vivo
Protocol: Dynamic [^18F]FCH and [^18F]D4-FCH imaging scans were carried out on a dedicated small animal PET scanner, quad-HIDAC (Oxford Positron Systems). The features of this instrument have been described previously (Barthel, H., et al., Cancer Res 2003; 63(13):3791-8). For scanning the tail veins, vehicle- or drug-treated mice were cannulated after induction of anesthesia (isofluorane/O2/N2O). The animals were placed within a thermostatically controlled jig (calibrated to provide a rectal temperature of ˜37° C.) and positioned prone in the scanner. [^18F]FCH or [^18F]D4-FCH (2.96-3.7 MBq) was injected via the tail vein cannula and scanning commenced. Dynamic scans were acquired in list mode format over a 60 min period as reported previously (Leyton, J., et al., Cancer Research 2006; 66(15):7621-9). […] Dynamic data from these slices were averaged for each tissue (liver, kidney, muscle, urine, and tumor) and at each of the 19 time points to obtain time versus radioactivity curves. Corresponding whole body time versus radioactivity curves representing injected radioactivity were obtained by adding together radioactivity in all 200×160×160 reconstructed voxels. Tumor radioactivity was normalized to whole-body radioactivity and expressed as percent injected dose per voxel (% ID/vox). […] The area under the curve was calculated as the integral of % ID/vox from 0 to 60 min.

[3] = 20 min
Description: The effect of deuterium substitution on bond strength was initially tested by evaluation of the chemical oxidation pattern of [^18F]fluoromethylcholine and [^18F]Fluoromethyl-[1,2-^2H4]choline using potassium permanganate.

[4] = test system: HCT116 human colon xenografts; conditions: mouse, in vivo
Protocol: Time course biodistribution was carried out for [^18F]fluoromethylcholine, [^18F]fluoromethyl-[1-^2H2]choline and [^18F]fluoromethyl-[1,2-^2H4]choline in nude mice bearing HCT116 human colon xenografts.
Human colon (HCT116) tumors were grown in male C3H-Hej mice (Harlan, Bicester, United Kingdom) as previously reported (Leyton, J., et al., Cancer Research 2005; 65(10):4202-10). Tumor dimensions were measured continuously using a caliper and tumor volumes were calculated by the equation: volume=(π/6)×a×b×c, where a, b, and c represent three orthogonal axes of the tumor. Mice were used when their tumors reached approximately 100 mm^3. […] The mice were sacrificed at pre-determined time points (2, 30 and 60 min) after radiotracer injection under terminal anesthesia to obtain blood, plasma, tumor, heart, lung, liver, kidney and muscle. Tissue radioactivity was determined on a gamma counter (Cobra II Auto-Gamma counter, Packard Biosciences Co, Pangbourne, UK) and decay corrected. Data were expressed as percent injected dose per gram of tissue.

choline oxidase = biological target: T1, choline oxidase (Arthrobacter globiformis, UniProt Q7X2H8); assay: Enzymatic oxidation study using choline oxidase; conditions: 60 minute time point, room temperature
T1 sequence (Q7X2H8 1-546): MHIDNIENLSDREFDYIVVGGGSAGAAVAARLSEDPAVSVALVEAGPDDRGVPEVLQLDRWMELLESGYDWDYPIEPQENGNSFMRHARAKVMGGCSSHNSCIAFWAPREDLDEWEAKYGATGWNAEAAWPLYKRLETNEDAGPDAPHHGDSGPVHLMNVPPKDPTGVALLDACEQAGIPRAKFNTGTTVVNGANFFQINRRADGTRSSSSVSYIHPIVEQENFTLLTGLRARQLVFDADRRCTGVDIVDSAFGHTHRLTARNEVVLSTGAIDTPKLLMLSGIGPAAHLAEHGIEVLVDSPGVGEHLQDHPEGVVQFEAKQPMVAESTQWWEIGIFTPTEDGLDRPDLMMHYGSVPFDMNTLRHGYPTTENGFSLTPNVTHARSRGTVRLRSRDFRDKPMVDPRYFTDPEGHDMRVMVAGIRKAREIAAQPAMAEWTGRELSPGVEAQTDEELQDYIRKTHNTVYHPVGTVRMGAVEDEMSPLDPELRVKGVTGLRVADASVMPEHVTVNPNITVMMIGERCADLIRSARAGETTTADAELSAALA
Protocol: [^18F]fluoromethylcholine and [^18F]fluoromethyl-[1,2-^2H4]choline were evaluated in a choline oxidase model (Roivainen, A., et al., European Journal of Nuclear Medicine 2000; 27:25-32).
An aliquot of either [^18F]Fluoromethylcholine or [^18F]fluoromethyl-[1,2-^2H4]choline [^18F](100 μL, ˜3.7 MBq) was added to a vial containing water (1.9 mL) to give a stock solution. Sodium phosphate buffer (0.1 M, pH 7) (10 uL) containing choline oxidase (0.05 units/uL) was added to an aliquot of stock solution (190 uL) and the vial was then left to stand at room temperature, with occasional agitation. At selected time-points (5, 20, 40 and 60 minutes) the sample was diluted with HPLC mobile phase (buffer A, 1.1 mL), filtered (0.22 μm filter) and then ˜1 mL injected via a 1 mL sample loop onto the HPLC for analysis. Chromatographic separation was performed on a Waters C18 Bondapak (7.8×300 mm) column (Waters, Milford, Mass., USA) at 3 mL/min with a mobile phase of buffer A, which contained acetonitrile, ethanol, acetic acid, 1.0 mol/L ammonium acetate, water, and 0.1 mol/L sodium phosphate (800:68:2:3:127:10 [v/v]) and buffer B, which contained the same constituents but in different proportions (400:68:44:88:400:10 [v/v]). The gradient program comprised 100% buffer A for 6 minutes, 0-100% buffer B for 10 minutes, 100-0% B in 2 minutes then 0% B for 2 minutes.

[5] = mouse, in vivo
Protocol: [^18F]FCH or [^18F](D4-FCH) (80-100 μCi) was injected via the tail vein into anesthetized non-tumor bearing C3H-Hej mice; isofluorane/O2/N2O anesthesia was used. Plasma samples obtained at 2, 15, 30 and 60 minutes after injection were snap frozen in liquid nitrogen and stored at −80° C. For analysis, samples were thawed and kept at 4° C. To approximately 0.2 mL of plasma was added ice-cold acetonitrile (1.5 mL). The mixture was then centrifuged (3 minutes, 15,493×g; 4° C.). The supernatant was evaporated to dryness using a rotary evaporator (Heidoloph Instruments GMBH & C0, Schwabach, Germany) at a bath temperature of 45° C. The residue was suspended in mobile phase (1.1 mL), clarified (0.2 μm filter) and analyzed by HPLC. […] All samples were analyzed on an Agilent 1100 series HPLC system equipped with a γ-RAM Model 3 radio-detector (IN/US Systems inc., FL, USA). The analysis was based on the method of Roivannen (Roivainen, A., et al., European Journal of Nuclear Medicine 2000; 27:25-32) using a Phenomenex Luna SCX column (10μ, 250×4.6 mm) and a mobile phase comprising of 0.25 M sodium dihydrogen phosphate (pH 4.8) and acetonitrile (90:10 v/v) delivered at a flow rate of 2 ml/min.

Compound	CHKA expression in vitro (CHKA)	[18F]D4-FCH radiotracer retention in treated tumors ([1]; 25 mg/kg daily for 10 days, versus vehicle)	imaging variables (% ID/vox60, % ID/vox60max, AUC) ([1]; after 10 days of drug treatment, [18F]D4-FCH-PET)	% IDvox60max (average of the maximum pixel % ID/vox60 across 5 slices) [2]	proportion of the parent compound remaining [3]	tumor uptake (localization of radiotracer) [4]	parent radiotracer present (radio-HPLC distribution of choline species) (choline oxidase)	percentage of parent compound in plasma [5]
O=C(NOC[C@H](O)CO)c1ccc(F)c(F)c1Nc1ccc(I)cc1F [PD0325901]	reduction	marked reduction in radiotracer retention	decreased					
[2H]C([2H])(O)C([2H])([2H])[N+](C)(C)C[18F] [[^18F]D4-FCH, [^18F]fluoromethyl-[1,2-^2H4]-choline]				significantly higher	greater proportion of the parent compound remaining	pronounced increase in tumor uptake	29±4%	consistently higher
C[N+](C)(C[18F])CCO [[^18F]FCH, [^18F]Fluoromethylcholine, reference compound]							11±8%	
